Test results as given in patent US20210113501A1, “METHOD OF ADMINISTERING BETA-HYDROXY-BETA-METHYLBUTYRATE (HMB)” (Metabolic Technologies, Inc., priority 2009, published 2021).

Assay: Study 1 hematology (complete blood count)
Type: in vivo, human
Experimental: Study 1 design. For study 1 the subjects reported to the laboratory in the morning following an overnight fast. Before ingestion of one of the supplemental treatments, a flexible sterile polyethylene catheter was inserted into a forearm vein using sterile procedures and a pre-ingestion blood sample was drawn. Subsequent blood samples were taken at 0, 2, 5, 10, 15, 25, 35, 45, 60, 90, 120 and 180 min after ingestion of the treatment. Plasma was separated and samples were stored frozen at −70° C. for analysis of HMB concentration. In addition, a portion of the pre-ingestion and 180 minute blood samples were used for measurements (LabCorp, Kansas City, Mo.) of glucose, uric acid, blood urea nitrogen (BUN), creatinine, sodium, potassium, chloride, carbon dioxide, phosphorous, protein, albumin, globulin, albumin:globulin ratio, total bilirubin, direct bilirubin, alkaline phosphatase, lactate dehydrogenase, aspartate aminotransferase (AST), alanine aminotransferase (ALT), gamma-glutamyl transpeptidase (GGT), iron binding capacity (TIBC), unsaturated iron binding capacity (UIBC), iron, iron saturation, total cholesterol, triglycerides, high density lipoprotein (HDL), low density lipoprotein (LDL), and cholesterol ratio. A complete blood count (CBC) was also performed before and after the 180 min treatment period. Subjects also completed a brief questionnaire to report any physical symptoms (such as nausea, headache, etc) they may have experienced during the experiment.
The data were analyzed using a crossover design with Proc GLM in SAS. (45) For the timed sampling of plasma HMB a repeated measures polynomial model was used. The model included subject, order, and treatment main effects and time by treatment interaction where appropriate. For other parameters Proc GLM was also used with subject, order, and treatment main effects and the p values are reported for the treatment main effect. Statistical significance was determined for p<0.05 and a trend was determined for 0.05<p<0.10.

In the case of `CC(C)(O)CC(=O)[O-].CC(C)(O)CC(=O)[O-].[Ca+2]` [CaHMB, calcium β-hydroxy-β-methylbutryate, reference compound], the “Basophils (absolute)” value (After (180 min)) is reported as 0.04 ± 0.0 ×10^3/μL, the “Basophils, %” value (After (180 min)) is reported as 0.4 ± 0.2% and the “Eosinophils (absolute)” value (After (180 min)) is reported as 0.1 ± 0.04 ×10^3/μL. For the same compound, the “Eosinophils, %” value (After (180 min)) was 2.1 ± 0.6%, the Hematocrit (After (180 min)) was 38.7 ± 1.3% and the Hemoglobin (After (180 min)) was 13.4 ± 0.5 g/dL. For the same compound, the “Lymphocytes (absolute)” value (After (180 min)) was 2.1 ± 0.2 ×10^3/μL, the “Lymphocytes, %” value (After (180 min)) was 34.0 ± 3.4% and the MCH (After (180 min)) was 31.3 ± 0.6 pg. The MCHC (After (180 min)) was 34.7 ± 0.2 g/dL, the MCV (After (180 min)) was 90.4 ± 1.5 fL and the “Monocytes (absolute)” value (After (180 min)) was 0.5 ± 0.1 ×10^3/μL. For the same compound, the “Monocytes, %” value (After (180 min)) was 7.4 ± 0.7%, the “Neutrophils (absolute)” value (After (180 min)) was 3.8 ± 0.7 ×10^3/μL and the “Neutrophils, %” value (After (180 min)) was 56.1 ± 3.8%. For the same compound, the Platelets (After (180 min)) was 202.9 ± 16^ ×10^3/μL, the RBC (After (180 min)) was 4.3 ± 0.2 ×10^6/µL and the RDW (After (180 min)) was 13.1 ± 0.2%. The WBC (After (180 min)) was 6.4 ± 0.7 ×10^3/μL, the “Basophils (absolute)” value (Before) was 0.05 ± 0.0 ×10^3/μL and the “Basophils, %” value (Before) was 0.5 ± 0.2%. For the same compound, the “Eosinophils (absolute)” value (Before) was 0.2 ± 0.04 ×10^3/μL, the “Eosinophils, %” value (Before) was 2.5 ± 0.4% and the Hematocrit (Before) was 38.3 ± 1.1%. The Hemoglobin (Before) was 13.3 ± 0.4 g/dL, the “Lymphocytes (absolute)” value (Before) was 2.5 ± 0.1 ×10^3/μL and the “Lymphocytes, %” value (Before) was 39.6 ± 2.8%. It also gave an MCH (Before) of 31.2 ± 0.6 pg, an MCHC (Before) of 34.7 ± 0.1 g/dL and an MCV (Before) of 90.0 ± 1.5 fL. The “Monocytes (absolute)” value (Before) was 0.5 ± 0.1 ×10^3/μL, the “Monocytes, %” value (Before) was 7.1 ± 0.9% and the “Neutrophils (absolute)” value (Before) was 3.3 ± 0.4 ×10^3/μL. The “Neutrophils, %” value (Before) was 50.3 ± 3.3%, the Platelets (Before) was 209.0 ± 14^ ×10^3/μL and the RBC (Before) was 4.3 ± 0.2 ×10^6/µL. For the same compound, the RDW (Before) was 13.1 ± 0.2%, the WBC (Before) was 6.4 ± 0.4 ×10^3/μL and the “Basophils (absolute) % Change” value (Before to After) was −25.0%. For the same compound, the “Basophils, % - % Change” value (Before to After) was −25.0%, the “Eosinophils (absolute) % Change” value (Before to After) was −21.4% and the “Eosinophils, % - % Change” value (Before to After) was −15.0%. For the same compound, the “Hematocrit % Change” value (Before to After) was 1.2%, the “Hemoglobin % Change” value (Before to After) was 1.2% and the “Lymphocytes (absolute) % Change” value (Before to After) was −15.6%. The “Lymphocytes, % - % Change” value (Before to After) was −14.2%, the “MCH % Change” value (Before to After) was 0.3% and the “MCHC % Change” value (Before to After) was 0.1%. The “MCV % Change” value (Before to After) was 0.4%, the “Monocytes (absolute) % Change” value (Before to After) was 8.3% and the “Monocytes, % - % Change” value (Before to After) was 3.5%. The “Neutrophils (absolute) % Change” value (Before to After) was 14.5%, the “Neutrophils, % - % Change” value (Before to After) was 11.7% and the “Platelets % Change” value (Before to After) was −2.9%. For the same compound, the “RBC % Change” value (Before to After) was 1.0%, the “RDW % Change” value (Before to After) was 0.1% and the “WBC % Change” value (Before to After) was 0.3%.
